From ChEMBL document CHEMBL1124894, “Synthesis and quantitative structure-activity relationships of diclofenac analogues” (J Med Chem, 1990)

Legend:
[1] = Partition coefficient (logD7.4); settings: octanol/water, pH 7.4
Cyclooxygenase = biological target: T1, Cyclooxygenase (Bos taurus, UniProt O62664+O62698)
T1 sequence (O62664 whole entry): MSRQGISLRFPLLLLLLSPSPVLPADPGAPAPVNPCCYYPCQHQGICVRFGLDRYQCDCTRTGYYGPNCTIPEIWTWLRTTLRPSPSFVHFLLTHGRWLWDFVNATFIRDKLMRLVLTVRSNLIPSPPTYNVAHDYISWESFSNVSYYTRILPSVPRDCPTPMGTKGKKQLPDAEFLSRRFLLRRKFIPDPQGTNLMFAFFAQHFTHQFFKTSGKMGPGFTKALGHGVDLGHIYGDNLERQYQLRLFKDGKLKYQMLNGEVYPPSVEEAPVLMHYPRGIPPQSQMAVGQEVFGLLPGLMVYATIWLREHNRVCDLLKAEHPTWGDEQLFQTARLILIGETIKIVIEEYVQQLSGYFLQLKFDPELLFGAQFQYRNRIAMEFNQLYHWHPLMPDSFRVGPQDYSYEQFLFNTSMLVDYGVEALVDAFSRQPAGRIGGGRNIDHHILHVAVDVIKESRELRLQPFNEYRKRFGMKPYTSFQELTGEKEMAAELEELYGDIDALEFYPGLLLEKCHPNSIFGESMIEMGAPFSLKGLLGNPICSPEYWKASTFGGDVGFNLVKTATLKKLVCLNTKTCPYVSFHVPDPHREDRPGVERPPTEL
T1 sequence (O62698 whole entry): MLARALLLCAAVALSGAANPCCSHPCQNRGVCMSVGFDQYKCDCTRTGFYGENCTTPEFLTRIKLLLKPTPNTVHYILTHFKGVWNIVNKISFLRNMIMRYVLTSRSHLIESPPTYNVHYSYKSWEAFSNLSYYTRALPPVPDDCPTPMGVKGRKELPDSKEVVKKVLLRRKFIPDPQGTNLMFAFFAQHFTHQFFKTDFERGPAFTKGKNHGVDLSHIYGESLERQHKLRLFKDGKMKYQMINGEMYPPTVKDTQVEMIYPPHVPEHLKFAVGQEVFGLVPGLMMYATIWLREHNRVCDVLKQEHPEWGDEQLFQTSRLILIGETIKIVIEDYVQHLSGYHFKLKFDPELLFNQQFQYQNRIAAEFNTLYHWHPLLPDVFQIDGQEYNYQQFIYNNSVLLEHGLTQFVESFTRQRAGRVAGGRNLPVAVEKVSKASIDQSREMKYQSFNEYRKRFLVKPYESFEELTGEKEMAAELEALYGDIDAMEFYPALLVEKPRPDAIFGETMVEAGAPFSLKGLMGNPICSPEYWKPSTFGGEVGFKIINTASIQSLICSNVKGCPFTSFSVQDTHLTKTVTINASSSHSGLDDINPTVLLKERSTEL
Description: In vitro inhibition of bovine prostaglandin G/H synthase, using bovine seminal vesicle microsomal preparations; IC50 in umol/L

[2] = Dissociation constant (pKa); type: physicochemical

Description for Rattus norvegicus: Inhibition of inflammatory hind paw edema, induced by Mycobacterium butyricum in rats; ED40 in umol/kg po

| logD [1] | log IC50 (Cyclooxygenase) | pKa [2] | SMILES | Log 1/ED40 (Rattus norvegicus) |
| --- | --- | --- | --- | --- |
| 1.66 | 1 | 4.2 | O=C(O)Cc1ccccc1Nc1cccc(Cl)c1Cl |  |
| 0.51 | 1.86 |  | COc1c(O)cc(Cl)c(Nc2ccccc2CC(=O)O)c1Cl | -2.47 |
| 1.17 | 0 | 4.2 | Cc1cccc(Cl)c1Nc1ccccc1CC(=O)O | -0.74 |
| 1.91 | 1.83 |  | CCc1cccc(CC)c1Nc1ccccc1CC(=O)O | -1.55 |
| 1.64 | 0.3 | 4.24 | O=C(O)Cc1ccccc1Nc1c(Cl)cccc1I | -0.11 |
| 0.56 | 1.75 |  | O=C([O-])Cc1ccccc1Nc1c(F)cccc1Cl.[Na+] | -0.8 |
| 1.48 | 0.13 | 4.02 | O=C([O-])Cc1cc(F)ccc1Nc1c(Cl)cccc1Cl.[Na+] | 0.05 |
| 1.54 | 1.04 | 4.3 | Cc1c(Cl)cccc1Nc1ccccc1CC(=O)O | -0.86 |
| 1.73 | 2.33 | 4.48 | O=C([O-])Cc1c(O)cccc1Nc1c(Cl)cccc1Cl.[Na+] |  |
| 1.62 | 0.25 |  | O=C([O-])Cc1cc(F)ccc1Nc1c(Cl)cc(F)cc1Cl.[Na+] | 0.25 |
| 0.72 | 1 |  | O=C(O)Cc1ccccc1Nc1c(Cl)ccc(O)c1Cl [3'-HYDROXY-DICLOFENAC] | -1.51 |
| 0.27 | 3.04 |  | O=C(O)Cc1cc(O)ccc1Nc1c(Cl)cc(O)cc1Cl [4',5-DIHYDROXY-DICLOFENAC] | -2.78 |

The next lines start with the compound.

| SMILES | logD [1] | log IC50 (Cyclooxygenase) | pKa [2] | Log 1/ED40 (Rattus norvegicus) |
| --- | --- | --- | --- | --- |
| O=C([O-])Cc1ccccc1Nc1c(Cl)cccc1Br.[Na+] | 1.44 | 0.28 | 4.2 | -0.14 |
| Cc1cc(C)c(C)c(Nc2ccccc2CC(=O)O)c1C | 1.95 | 0.78 | 4.2 | -1.25 |
| Cc1cccc(Nc2ccccc2CC(=O)O)c1C | 1.03 | 0.3 |  | -1.59 |
| O=C(O)Cc1ccccc1Nc1cc(Cl)cc(Cl)c1 | 1.98 | 1.9 | 4.31 | -2.23 |
| O=C(O)Cc1ccccc1Nc1ccc(Cl)cc1Cl | 1.33 | 1.85 |  | -1.23 |
| Cc1cccc(Nc2ccccc2CC(=O)O)c1Cl | 1.59 | 1.3 |  | -0.26 |
| O=C([O-])Cc1ccccc1Nc1c(F)cccc1F.[Na+] | 0.26 | 2.36 | 4.09 | -2.24 |
| COc1cc(Cl)c(Nc2ccccc2CC(=O)O)c(Cl)c1 | 1.24 | 0 | 4.2 | -0.49 |
| Cc1cc(C)c(C)c(Nc2ccc(Cl)cc2CC(=O)O)c1C | 2.93 | 1.82 |  | -1.2 |
| Cc1ccc(Cl)c(Nc2ccccc2CC(=O)[O-])c1Cl.[Na+] |  |  |  | -0.65 |
| O=C([O-])Cc1ccccc1Nc1c(Cl)cc(F)cc1Cl.[Na+] | 1.27 | 0.05 |  | -0.47 |
| Cc1cccc(C)c1Nc1ccccc1CC(=O)O | 1.21 | 0.78 | 4.07 | -0.29 |
| COc1ccc(Cl)c(Nc2ccccc2CC(=O)O)c1Cl | 1.18 | 1.04 | 3.95 | -0.96 |
| O=C(O)Cc1ccccc1Nc1ccc(Cl)c(Cl)c1 | 1.8 | 2.15 | 4.3 | -2.53 |
| O=C([O-])Cc1cc(Cl)ccc1Nc1c(Cl)cccc1Cl.[Na+] | 1.97 | 0.1 |  | 0.07 |
| O=C([O-])Cc1ccccc1Nc1ccc(F)cc1F.[Na+] | 0.55 | 2.01 |  | -2.85 |
| O=C(O)Cc1c(Br)cccc1Nc1c(Cl)cccc1Cl | 1.87 | 1.18 |  | -3.43 |
| O=C(O)Cc1ccccc1Nc1ccccc1Cl | 0.91 | 2.31 |  | -1.76 |
| O=C(O)Cc1ccccc1Nc1cc(Cl)ccc1Cl | 1.64 | 2 | 4.1 | -1.01 |
| O=C(O)Cc1ccccc1Nc1ccccc1 | 0.19 | 2.46 | 4.1 | -2.94 |
| COc1cc(Cl)c(Nc2ccccc2CC(=O)O)c(Cl)c1O [3'-HYDROXY-4'-METHOXY-DICLOFENAC] | 0.25 | 2.47 | 4.13 | -2.47 |
| O=C(O)Cc1ccccc1Nc1c(Cl)cc(O)cc1Cl [4'-HYDROXY-DICLOFENAC] | 0.7 | 2.15 | 4.4 | -0.98 |
| O=C(O)Cc1cc(O)ccc1Nc1c(Cl)cccc1Cl [5-HYDROXY-DICLOFENAC] | 0.76 | 3.35 | 4.22 | -0.98 |
| COc1ccc2c(c1)c(CC(=O)O)c(C)n2C(=O)c1ccc(Cl)cc1 [INDOMETHACIN] | 1 |  |  |  |
